Measured values from patent US20240199647A1, “ANTI-VIRAL COMPOUNDS” (Aligos Therapeutics, Inc., priority 2022, published 2024).
pEC50, pIC50: −log10 of the molar value. Read-outs that look alike come from different tables or passages of the source.

Legend:
[1] = Cytotoxicity in HeLa cells without addition of OC43 virus (in parallel); settings: human, HeLa cells, without OC43 virus
[2] = test system: human beta-coronavirus OC43; assay: OC43 Coronavirus Assay in HeLa cells (antiviral, cytopathic effect, cell-titer-glo); assay type: cell-based; settings: Betacoronavirus 1, OC43, HeLa, Table B, OC43 coronavirus in HeLa cells, read-out: EC50
in vitro = settings: human
SARS-Cov-2 3CLpro = SARS-Cov-2 3CLpro (Severe acute respiratory syndrome coronavirus 2, UniProt P0DTD1); assay: biochemical; settings: Table A, class symbols, read-out: SARS-Cov-2 (IC50)
[3] = test system: SARS-CoV-2 B.1.1.7 lineage; assay: microbe, parasite or virus in culture; assay type: cell-based; settings: Severe acute respiratory syndrome coronavirus 2, Table C, SARS-CoV-2 B.1.1.7 in A549-dual_ACE2_TMPRSS2 cells, read-out: A549-dual_ACE2_TMPRSS2 (EC50)

Row | SMILES | CC50 at 6 days [1] | pEC50 ([2]; class symbols) | CC50 (in vitro) | pIC50 (SARS-Cov-2 3CLpro) | pEC50 ([3]; class symbols) | pEC50 ([2]; cells given as a bound) | pEC50 ([3]; cells given as a bound)
1 | CN(C(=O)[C@H](CC1CC1)NC(=O)C(F)(F)F)[C@@H](CC1CC1)C(=O)N1C[C@@]2(C[C@H]1C#N)Oc1c(cccc1-c1ccccc1)NC2=O [Compound 125, (S)—N—((S)-1-((2R,5'S)-5′-cyano-3-oxo-8-phenyl-3,4-dihydrospiro[benzo[b][1,4]oxazine-2,3′-pyrrolidin]-1′-yl)-3-cyclopropyl-1-oxopropan-2-yl)-3-cyclopropyl-N-methyl-2-(2,2,2-trifluoroacetamido)propanamide] | > 10 µM | > 7.00 | > 1 µM | > 7.70 | > 7.00 |  | 
2 | CN(C(=O)[C@@H](Cc1ccc(F)cc1)NC(=O)C(F)(F)F)[C@@H](CC1CC1)C(=O)N1C[C@@]2(C[C@H]1C#N)Oc1cc(F)cc(F)c1NC2=O [Compound 90] | > 10 µM | > 7.00 | > 1 µM | > 7.70 | > 7.00 |  | 
3 | C[C@H](NC(=O)C(F)(F)F)C(=O)N(C)[C@@H](CC1(C)CC1)C(=O)N1C[C@@]2(C[C@H]1C#N)Oc1cccnc1NC2=O [Compound 183] | > 10 µM | > 7.00 | > 1 µM | > 7.70 | 6.00 to 7.00 |  | 
4 | CC(C)C[C@@H](C(=O)N1C[C@@]2(C[C@H]1C#N)Oc1cc(F)cc(F)c1NC2=O)N(C)C(=O)[C@H](C)NC(=O)C1(F)CC1 [Compound 71] | > 10 µM | 6.00 to 7.00 | > 1 µM | > 7.70 | 6.00 to 7.00 |  | 
5 | C[C@H](OCc1ccccc1)[C@H](NC(=O)C(F)(F)F)C(=O)N(C)[C@@H](CC1CC1)C(=O)N1C[C@@]2(C[C@H]1C#N)Oc1cccnc1NC2=O [Compound 192] | > 10 µM | 6.00 to 7.00 | > 1 µM | 6.70 to 7.70 | 6.00 to 7.00 |  | 
6 | CN(C(=O)[C@H](CC1CC1)NS(=O)(=O)C1(C)CC1)[C@@H](CC1CC1)C(=O)N1C[C@@]2(C[C@H]1C#N)Oc1cccnc1NC2=O [Compound 198] | > 10 µM | > 7.00 | > 1 µM | > 7.70 | 6.00 to 7.00 |  | 
7 | COCC[C@H](NC(=O)C(F)(F)F)C(=O)N(C)[C@@H](CC1CC1)C(=O)N1C[C@@]2(C[C@H]1C#N)Oc1cc(F)cc(F)c1NC2=O [Compound 103] | > 10 µM | 5.00 to 6.00 | > 1 µM | > 7.70 | 6.00 to 7.00 |  | 
8 | C[C@H](NC(=O)C(F)(F)F)C(=O)N(C)[C@@H](CC(C)(C)F)C(=O)N1C[C@@]2(C[C@H]1C#N)Oc1cc(F)cc(F)c1NC2=O [Compound 61] | > 10 µM | 5.00 to 6.00 | > 1 µM | > 7.70 | 6.00 to 7.00 |  | 
9 | COC(=O)N[C@@H](C)C(=O)N(C)[C@@H](CC(C)C)C(=O)N1C[C@@]2(C[C@H]1C#N)Oc1cc(F)cc(F)c1NC2=O [Compound 70] | > 10 µM |  | > 1 µM | > 7.70 | 6.00 to 7.00 | < 5.00 | 
10 | C[C@@H](C(=O)N(C)[C@@H](CC1CC1)C(=O)N1C[C@@]2(C[C@H]1C#N)Oc1cccnc1NC2=O)n1cc(C2CC2)nn1 [Compound 155] | > 10 µM | 6.00 to 7.00 | > 1 µM | 6.70 to 7.70 | 6.00 to 7.00 |  | 
11 | CC1=N[C@@]2(C[C@@H](C#N)N(C(=O)[C@H](CC(C)C)N(C)C(=O)[C@H](C)NC(=O)C(F)(F)F)C2)C(=O)N1 [Compound 18] | > 10 µM | 5.00 to 6.00 | > 1 µM | 6.70 to 7.70 |  |  | < 6.00
12 | CN(C(=O)[C@H](CC(C)(C)C)NC(=O)C(F)(F)F)[C@@H](CC1CC1)C(=O)N1C[C@@]2(C[C@H]1C#N)Oc1cccnc1NC2=O [Compound 188] | > 10 µM | > 7.00 | > 1 µM | > 7.70 | > 7.00 |  | 
13 | CN(C(=O)C(=O)Nc1ccc(F)cc1)[C@@H](CC1CC1)C(=O)N1C[C@@]2(C[C@H]1C#N)Oc1cccnc1NC2=O [Compound 226, N^1—((S)-1-((2R,5'S)-5′-cyano-3-oxo-3,4-dihydrospiro[pyrido[3,2-b][1,4]oxazine-2,3′-pyrrolidin]-1′-yl)-3-cyclopropyl-1-oxopropan-2-yl)-N^2-(4-fluorophenyl)-N^1-methyloxalamide] | > 10 µM | 5.00 to 6.00 | > 1 µM | 5.70 to 6.70 |  |  | < 6.00
14 | C[C@H](NC(=O)C(F)(F)F)C(=O)N(C)[C@@H](CC1CC1)C(=O)N1C[C@@]2(C[C@H]1C#N)Oc1cccc(F)c1NC2=O [Compound 98] | > 10 µM | 6.00 to 7.00 | > 1 µM | > 7.70 | > 7.00 |  | 
15 | CN(C(=O)[C@H](CC1CC1)NC(=O)C(F)(F)F)[C@@H](CC1CC1)C(=O)N1C[C@@]2(C[C@H]1C#N)Oc1cc(C(=O)N3CCOCC3)ccc1NC2=O [Compound 143] | > 10 µM | > 7.00 | > 1 µM | > 7.70 | 6.00 to 7.00 |  | 
16 | CC(C)C[C@@H](C(=O)N1C[C@@]2(C[C@H]1C#N)Oc1ccccc1NC2=O)N(C)C(=O)c1cc2c(F)cc(F)cc2[nH]1 [Example 2, N—((S)-1-((2R,5'S)-5′-cyano-3-oxo-3,4-dihydrospiro[benzo[b][1,4]oxazine-2,3′-pyrrolidin]-1′-yl)-4-methyl-1-oxopentan-2-yl)-4,6-difluoro-N-methyl-1H-indole-2-carboxamide] | > 10 µM | 6.00 to 7.00 | > 1 µM | > 7.70 | 6.00 to 7.00 |  | 
17 | CN(C(=O)[C@H](CC1CC1)NC(=O)C(F)(F)F)[C@@H](CC(C)(C)F)C(=O)N1C[C@@]2(CC1C#N)Oc1cc(F)cc(F)c1NC2=O (stereo partly drawn) [Compound 54] | > 10 µM | > 7.00 | > 1 µM | > 7.70 | 6.00 to 7.00 |  | 
18 | COc1ccc(C[C@@H](NC(=O)C(F)(F)F)C(=O)N(C)[C@@H](CC2CC2)C(=O)N2C[C@@]3(C[C@H]2C#N)Oc2cccnc2NC3=O)cc1 [Compound 149] | > 10 µM | > 7.00 | > 1 µM | > 7.70 | > 7.00 |  | 
19 | CN(C(=O)c1cc2cccnc2[nH]1)[C@@H](CC1CC1)C(=O)N1C[C@@]2(C[C@H]1C#N)Oc1cc(F)cc(F)c1NC2=O [Compound 137] | > 10 µM | 5.00 to 6.00 | > 1 µM | 6.70 to 7.70 | 6.00 to 7.00 |  | 
20 | CN(C(=O)[C@H](CC(F)(F)F)NC(=O)C(F)(F)F)[C@@H](CC1CC1)C(=O)N1C[C@@]2(C[C@H]1C#N)Oc1cccnc1NC2=O [Compound 189] | > 10 µM | 6.00 to 7.00 | > 1 µM | 6.70 to 7.70 | 6.00 to 7.00 |  | 
21 | CN(C(=O)[C@@H](Cc1ccc(F)cc1)NC(=O)C(F)(F)F)[C@@H](CC1CC1)C(=O)N1C[C@@]2(C[C@H]1C#N)Oc1ncccc1NC2=O [Compound 205] | > 10 µM | > 7.00 | > 1 µM | > 7.70 | > 7.00 |  | 
22 | CN(C(=O)[C@@H](CC1CC1)n1cc(C2CC2)nn1)[C@@H](CC1CC1)C(=O)N1C[C@@]2(C[C@H]1C#N)Oc1cc(F)cc(F)c1NC2=O [Compound 107, (R)—N—((S)-1-((2R,5'S)-5′-cyano-5,7-difluoro-3-oxo-3,4-dihydrospiro[benzo[b][1,4]oxazine-2,3′-pyrrolidin]-1′-yl)-3-cyclopropyl-1-oxopropan-2-yl)-3-cyclopropyl-2-(4-cyclopropyl-1H-1,2,3-triazol-1-yl)-N-methylpropanamide] | > 10 µM | 5.00 to 6.00 | > 1 µM | > 7.70 | 6.00 to 7.00 |  | 
23 | CC(C)C[C@@H](C(=O)N1C[C@@]2(C[C@H]1C#N)Oc1c(F)cc(F)cc1NC2=O)N(C)C(=O)[C@H](C)NC(=O)C(F)(F)F [Compound 49] | > 10 µM | 6.00 to 7.00 | > 1 µM | > 7.70 | 6.00 to 7.00 |  | 
24 | CN(C(=O)[C@H](CC1(C)CCC1)NC(=O)C(F)(F)F)[C@@H](CC1CC1)C(=O)N1C[C@@]2(C[C@H]1C#N)Oc1ncccc1NC2=O [Compound 206] | > 10 µM | > 7.00 | > 1 µM | > 7.70 | > 7.00 |  | 
25 | CC(C)C[C@@H](C(=O)N1C[C@@]2(C[C@H]1C#N)Oc1cc(F)cc(F)c1NC2=O)N(C)C(=O)[C@H](Cc1ccc(F)cc1)NC(=O)C(F)(F)F [Compound 69] | > 10 µM |  | > 1 µM | > 7.70 | 6.00 to 7.00 | < 5.00 | 
26 | CN(C(=O)[C@H](CC1CC1)NC(=O)C(F)(F)F)[C@@H](CC1CC1)C(=O)N1C[C@@]2(C[C@H]1C#N)Oc1cc(F)cc(F)c1CNC2=O [Compound 207] | > 10 µM | > 7.00 | > 1 µM | 6.70 to 7.70 | > 7.00 |  | 
27 | CC(C)C[C@@H](C(=O)N1C[C@]2(CC(C)NC2=O)C[C@H]1C#N)N(C)C(=O)[C@H](C)NC(=O)C(F)(F)F (stereo partly drawn) [Compound 21, (2S)—N-((2S)-1-((3S,5S)-3-cyano-8-methyl-6-oxo-2,7-diazaspiro[4.4]nonan-2-yl)-4-methyl-1-oxopentan-2-yl)-N-methyl-2-(2,2,2-trifluoroacetamido)propanamide] | > 10 µM | 6.00 to 7.00 | > 1 µM | > 7.70 | 6.00 to 7.00 |  | 
